pKi: −log10 of the molar value.
Key:
[1] = molecular target: T1, Muscarinic acetylcholine receptor M1 (Rattus norvegicus, UniProt P08482)
T1 sequence (P08482 whole entry): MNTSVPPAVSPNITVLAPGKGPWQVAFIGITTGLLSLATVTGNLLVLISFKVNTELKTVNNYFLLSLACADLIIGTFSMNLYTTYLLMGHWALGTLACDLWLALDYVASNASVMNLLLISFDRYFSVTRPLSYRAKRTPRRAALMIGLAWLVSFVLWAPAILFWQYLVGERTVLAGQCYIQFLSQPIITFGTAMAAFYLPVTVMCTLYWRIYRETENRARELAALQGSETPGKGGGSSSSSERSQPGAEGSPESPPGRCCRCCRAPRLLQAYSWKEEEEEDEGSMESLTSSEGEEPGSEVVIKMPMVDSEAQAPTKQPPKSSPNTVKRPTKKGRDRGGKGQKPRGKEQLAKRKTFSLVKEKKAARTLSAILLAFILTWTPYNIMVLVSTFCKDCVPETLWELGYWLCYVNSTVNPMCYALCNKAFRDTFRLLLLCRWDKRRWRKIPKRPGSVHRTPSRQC

[2] = molecular target: Muscarinic acetylcholine receptor M3 (Rattus norvegicus, UniProt P08483)
Chain of Muscarinic acetylcholine receptor M3 (P08483 whole entry): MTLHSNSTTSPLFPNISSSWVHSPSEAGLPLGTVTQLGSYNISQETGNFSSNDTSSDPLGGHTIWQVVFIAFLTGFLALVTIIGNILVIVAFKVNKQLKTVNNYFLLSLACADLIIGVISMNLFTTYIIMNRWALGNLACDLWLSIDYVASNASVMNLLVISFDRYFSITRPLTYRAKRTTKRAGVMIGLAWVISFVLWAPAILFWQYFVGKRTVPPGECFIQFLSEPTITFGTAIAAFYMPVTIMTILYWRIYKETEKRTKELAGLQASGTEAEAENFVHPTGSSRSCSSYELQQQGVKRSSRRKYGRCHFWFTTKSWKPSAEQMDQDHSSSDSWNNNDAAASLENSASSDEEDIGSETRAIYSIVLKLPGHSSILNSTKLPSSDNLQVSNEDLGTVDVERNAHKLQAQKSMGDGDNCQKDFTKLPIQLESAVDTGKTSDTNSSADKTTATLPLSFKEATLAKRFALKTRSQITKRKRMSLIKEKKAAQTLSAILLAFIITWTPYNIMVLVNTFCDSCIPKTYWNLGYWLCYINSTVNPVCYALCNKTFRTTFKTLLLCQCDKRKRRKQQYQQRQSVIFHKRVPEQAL

[3] = molecular target: T2, Muscarinic acetylcholine receptor M5 (Homo sapiens, UniProt P08912)
T2 sequence (P08912 whole entry): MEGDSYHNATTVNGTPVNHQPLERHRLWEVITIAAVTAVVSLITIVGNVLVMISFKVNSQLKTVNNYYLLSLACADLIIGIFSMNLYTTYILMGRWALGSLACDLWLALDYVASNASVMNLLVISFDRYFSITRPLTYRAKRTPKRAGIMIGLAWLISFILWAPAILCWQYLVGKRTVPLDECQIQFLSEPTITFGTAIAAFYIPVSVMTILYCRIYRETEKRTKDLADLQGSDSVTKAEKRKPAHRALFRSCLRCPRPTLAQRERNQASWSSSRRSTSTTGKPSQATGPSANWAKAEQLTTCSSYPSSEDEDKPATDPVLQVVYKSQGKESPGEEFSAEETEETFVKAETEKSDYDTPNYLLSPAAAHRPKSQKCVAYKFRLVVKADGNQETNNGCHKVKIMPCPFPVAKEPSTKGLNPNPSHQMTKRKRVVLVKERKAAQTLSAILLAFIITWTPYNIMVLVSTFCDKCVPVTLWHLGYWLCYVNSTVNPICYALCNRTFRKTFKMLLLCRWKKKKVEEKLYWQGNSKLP

[4] = molecular target: T3, Muscarinic acetylcholine receptor M4 (Homo sapiens, UniProt P08173)
T3 sequence (P08173 whole entry): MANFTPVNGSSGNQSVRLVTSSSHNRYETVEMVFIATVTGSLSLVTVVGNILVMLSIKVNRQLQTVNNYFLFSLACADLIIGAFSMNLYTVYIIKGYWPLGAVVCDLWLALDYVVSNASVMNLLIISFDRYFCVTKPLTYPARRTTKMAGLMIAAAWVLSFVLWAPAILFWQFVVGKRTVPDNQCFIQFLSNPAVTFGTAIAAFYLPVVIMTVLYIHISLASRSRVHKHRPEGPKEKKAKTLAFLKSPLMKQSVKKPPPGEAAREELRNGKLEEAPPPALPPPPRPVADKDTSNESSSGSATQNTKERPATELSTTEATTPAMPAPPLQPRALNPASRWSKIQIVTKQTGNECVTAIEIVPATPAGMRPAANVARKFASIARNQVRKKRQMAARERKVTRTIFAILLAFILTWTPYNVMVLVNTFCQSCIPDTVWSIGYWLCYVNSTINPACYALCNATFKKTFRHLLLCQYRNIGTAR

Measured: pKi

CC(CCC(=O)NCCS(=O)(=O)O)C1CCC2C3CCC4CC(O)CCC4(C)C3CCC12C (stereo unspecified) [NSC_10595]
< 5.00: [1] | [2]

CC(CCC(=O)NCC(=O)O)C1CCC2C3CCC4CC(O)CCC4(C)C3CCC12C (stereo unspecified) [CAS_115245]
< 5.00: [1] | [3] | [2] | [4]

— BindingDB's records for doi:10.1124/jpet.102.036376 (University of Arkansas, 2002)
